Test results as given in EP4745134A1 (Jiangsu Yahong Meditech Co., Ltd., priority 2023, dated 2025).
Read-outs that look alike come from different tables or passages of the source.

Key:
HCT116 MTAP KO cells = experiment: Inhibitory activity against cell proliferation (CellTiter Glo, 6 days), HCT116 MTAP KO; format: cell-based; conditions: for IC50: Homo sapiens, HCT-116, 144 h, HCT116 MTAP KO cells, 6 days, CellTiter Glo, read-out: HCT116 MTAP KO IC50; for Selectivity HCT 116-WT/ HCT116 MTAP KO: ratio of IC50 HCT116-WT / HCT116 MTAP KO
Outline: (§1)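 Viability is measured by CellTiter Glo luminescence on day 7, following a 6-day treatment with compounds serially diluted 4-fold over 8 points from 10000 nM. Both lines are plated at 250 cells per well and cultured overnight beforehand.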

HCT116-WT cells = experiment: Inhibitory activity against cell proliferation (CellTiter Glo, 6 days), HCT116-WT; format: cell-based; conditions: 144 h, HCT116-WT cells, 6 days, CellTiter Glo; read-out: HCT116-WT IC50
Outline: as §1

PRMT5-MTA = PRMT5-MTA (Homo sapiens, UniProt O14744); experiment: Enzymatic inhibitory activity against PRMT5-MTA (AlphaScreen); format: biochemical
Outline: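 PRMT5/[…] (1 nM) was preincubated for 30 min at room temperature with 1 µM […] and 2.5 µM SAM, then exposed to compound (10-point, 3-fold from 1000 nM) for 15 min at 23 °C. Histone H4 substrate (5 nM) was added and reacted for 45 min at 23 °C. Symmetric dimethyl-R3 H4 was detected by AlphaScreen and IC50 calculated.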

Sequence of PRMT5-MTA (O14744 whole entry): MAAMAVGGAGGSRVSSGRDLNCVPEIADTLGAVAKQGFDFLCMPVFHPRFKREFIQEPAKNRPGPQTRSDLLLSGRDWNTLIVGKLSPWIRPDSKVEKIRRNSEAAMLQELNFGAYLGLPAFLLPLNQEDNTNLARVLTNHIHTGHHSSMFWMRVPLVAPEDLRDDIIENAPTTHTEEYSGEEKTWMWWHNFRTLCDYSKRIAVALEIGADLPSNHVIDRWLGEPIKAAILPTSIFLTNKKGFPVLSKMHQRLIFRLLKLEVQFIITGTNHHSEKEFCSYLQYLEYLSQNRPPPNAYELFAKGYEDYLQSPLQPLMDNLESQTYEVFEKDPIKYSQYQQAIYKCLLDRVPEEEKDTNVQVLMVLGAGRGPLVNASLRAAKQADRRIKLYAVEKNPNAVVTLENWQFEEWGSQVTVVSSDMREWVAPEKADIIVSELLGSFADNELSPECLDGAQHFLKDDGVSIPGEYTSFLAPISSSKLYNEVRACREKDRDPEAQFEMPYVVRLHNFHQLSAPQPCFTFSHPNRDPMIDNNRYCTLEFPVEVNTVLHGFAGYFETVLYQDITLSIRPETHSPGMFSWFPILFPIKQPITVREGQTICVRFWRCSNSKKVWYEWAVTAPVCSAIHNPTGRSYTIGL
Sequence of PRMT5-MTA (Q9BQA1 whole entry partner): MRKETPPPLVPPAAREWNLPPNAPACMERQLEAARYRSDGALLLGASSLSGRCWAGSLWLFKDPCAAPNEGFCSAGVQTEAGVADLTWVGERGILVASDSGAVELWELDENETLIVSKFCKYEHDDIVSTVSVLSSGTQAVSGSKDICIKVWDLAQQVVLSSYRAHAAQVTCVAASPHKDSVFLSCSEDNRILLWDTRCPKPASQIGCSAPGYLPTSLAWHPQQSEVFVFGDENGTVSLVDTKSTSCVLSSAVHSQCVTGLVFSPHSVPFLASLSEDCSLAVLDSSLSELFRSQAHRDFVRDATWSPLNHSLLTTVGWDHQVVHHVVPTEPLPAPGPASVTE

SMILES	IC50 (HCT116 MTAP KO cells) [nM]	Selectivity HCT 116-WT/ HCT116 MTAP KO (HCT116 MTAP KO cells)	IC50 (HCT116-WT cells) [nM]	IC50 (PRMT5-MTA; read-out: IC50) [nM]	IC50 (PRMT5-MTA) [nM]
Cc1ncsc1-c1ccc(CN(C(=O)c2ccc3nc(N)c(Br)cc3c2)N(c2ncccn2)C2CC2)nc1 [Example 171, 2-amino-3-bromo-N'-cyclopropyl-N-((5-(4-methylthiazol-5-yl)pyridin-2-yl)methyl)-N'-(pyrimidin-2-yl)quinoline-6-carbohydrazide]	43	14.47	622	5.2	–
Cn1ncc2c(N)nc3cc(Cl)c(C(=O)N4CC5(CC5)CN4c4ncc(Cl)cc4F)cc3c21 [Example 347, (4-amino-7-chloro-1-methyl-1H-pyrazolo [4,3-c]quinolin-8-yl)(6-(5-chloro-3-fluoropyridin-2-yl)-5,6-diazaspiro[2.4]heptan-5-yl)methanone]	32	39.88	1280	7.1	–
Cn1ncc2c(N)nc3cc(Cl)c(C(=O)N4CC(F)(F)CN4c4ncc(Br)cc4F)cc3c21 [Example 456, (4-amino-7-chloro-1-methyl-1H-pyrazolo [4,3-c]quinolin-8-yl)(2-(5-bromo-3-fluor opyridin-2-yl)-4,4-difluoropyrazolidin-1-yl)methanone]	28	68.89	1930	7	–
CCN(c1ncccn1)N(Cc1ccc(C(F)(F)F)cn1)C(=O)c1ccc2nc(N)c(C)cc2c1 [Example 6, 2-amino-N'-ethyl-3-methyl-N'-(pyrimidin-2-yl)-N-((5-(trifluoromethyl)pyridin-2-yl)methyl)quinoline-6-carbohydrazide]	95	14.55	1380	1.5	–
CC1CN(C(=O)c2cc3c(cc2F)nc(N)c2cnn(C)c23)N(c2ncccc2F)C1 (stereo not shown) [Example 393, (4-amino-7-fluoro-1-methyl-1H-pyrazolo [4,3-c]quinolin-8-yl)(2-(3-fluoropyridin-2-yl)-4-methylpyrazolidin-1-yl)methanone]	9.8	51.22	502	3.4	–
Cc1cc2cc(C(=O)N(Cc3ccc(Br)cn3)N(C)c3nccc4nccnc34)ccc2nc1N [Example 73, 2-amino-N-((5-bromopyridin-2-yl)methyl)-N',3-dimethyl-N'-(pyrido[3,4-b]pyrazin-5-yl)quinoline-6-carbohydrazide]	40	29.88	1200	2.5	–
COC1(c2ccc(CN(C(=O)c3ccc4nc(N)c(C)cc4c3)N(C)c3ncccn3)nc2)COC1 [Example 284, 2-amino-N-((5-(3-methoxyoxetan-3-yl)pyridin-2-yl)methyl)-N',3-dimethyl-N'-(pyrimidin-2-yl)quinoline-6-carbohydrazide]	194	17.71	3440	2.3	–
Cc1cc2nc(N)c3cnn(C)c3c2cc1C(=O)N1CC(C)CN1c1ncc(C#CC(C)(C)O)cc1F (stereo not shown) [Example 493, (4-amino-1,7-dimethyl-1H-pyrazolo[4,3-c]quinolin-8-yl)(2-(3-fluoro-5-(3-hydroxy-3-methyl-but-1-yn-1-yl)pyridin-2-yl)-4-methylpyrazolidin-1-yl)methanone]	68	27.94	1900	5.1	–
Cc1cc2nc(N)c3cnn(C)c3c2cc1C(=O)N1CC(C)CN1c1cccc(Cl)c1F (stereo not shown) [Example 383, (4-amino-1,7-dimethyl-1H-pyrazolo[4,3-c]quinolin-8-yl)(2-(3-chloro-2-fluorophenyl)-4-methylpyrazolidin-1-yl)methanone]	50	35.34	1770	6	–
CN(C(=O)c1cc2c(cc1F)nc(N)c1cnn(C)c12)N1CCc2nc(Br)ccc21 [Example 32, 4-amino-N-(5-bromo-2,3-dihydro-1H-pyrrolo[3,2-b]pyridin-1-yl)-7-fluoro-N,1-dimethy 1-1H-pyrazolo[4,3-c]quinoline-8-carboxamide]	122	29.85	3640	–	2.5
COC1CN(C(=O)c2cc3c(cc2C)nc(N)c2cnn(C)c23)N(c2ncc(Cl)cc2F)C1 (stereo not shown) [Example 441, (4-amino-1,7-dimethyl-1H-pyrazolo[4,3-c]quinolin-8-y1)(2-(5-chloro-3-fluoropyridin-2-yl)-4-methoxypyrazolidin-1-yl)met hanone]	48	37.31	1790	7.2	–
Cc1cc2nc(N)c3cnn(C)c3c2cc1C(=O)N1CCCN1c1ccc(C(F)(F)F)cc1 [Example 377, (4-amino-1,7-dimethyl-1H-pyrazolo[4,3-c]quinolin-8-yl)(2-(4-(trifluoromethyl)phenyl)pyrazolidin-1-yl)methanone]	311	13.85	4310	3.1	–
Cc1cc2cc(C(=O)N(Cc3ccc(C(F)(F)F)cn3)N(C)c3nccc4ncccc34)ccc2nc1N [Example 108, 2-amino-N',3-dimethyl-N'-(1,6-naphthyridin-5-yl)-N-((5-(trifluoromethyl)pyridin-2-yl)methyl)quinoline-6-carbohydrazide]	141	24.26	3420	1.9	–
[2H]C([2H])([2H])c1cc2cc(C(=O)N(Cc3ccc(C(F)(F)F)cn3)N(c3ncccn3)C([2H])([2H])[2H])ccc2nc1N [Example 311, 2-amino-N',3-bis(methyl-D3)-N'-(pyrimidin-2-yl)-N-((5-(trifluoromethyl)pyridin-2-yl)methyl)quinoline-6-carbohydrazide]	59	29.78	1760	3	–
Cc1cc2nc(N)c3cnn(C)c3c2cc1C(=O)N1CC(C)CN1c1cccc(C2CC2)n1 (stereo not shown) [Example 405, (4-amino-1,7-dimethyl-1H-pyrazolo[4,3-c]quinolin-8-yl)(2-(6-cyclopropylpyridin-2-yl) -4-methylpyrazolidin-1-yl)methanone]	29	31.93	926	12.3	–
Cc1cc2cc(C(=O)N(Cc3ccc(C(F)(F)F)cn3)N(C)c3ccccc3)ccc2nc1N [Example 75, 2-amino-N',3-dimethyl-N'-phenyl-N-((5-(trifluoromethyl)pyridin-2-yl)methyl)quinoline-6-carbohydrazide]	80	11.26	901	3.1	–
Cc1cc2nc(N)c3cnn(C)c3c2cc1C(=O)N1CC(C)CN1c1ncccc1Br (stereo not shown) [Example 370, (4-amino-1,7-dimethyl-1H-pyrazolo[4,3-c]quinolin-8-yl)(2-(3-bromopyridin-2-yl) -4-methylpyrazolidin-1-yl)methanone]	118	29.42	3470	5.7	–
Cc1cc2cc(C(=O)N(Cc3ccc(-c4cnc5ccccc5c4)cn3)N(C)c3ncccn3)ccc2nc1N [Example 197, 2-amino-N',3-dimethyl-N'-(pyrimidin-2-yl)-N-((5-(quinolin-3-yl)pyridin-2-yl)methyl)quinoline-6-carbohydrazide]	34	18.97	645	1.1	–
Cc1cc2nc(N)c3cnn(C)c3c2cc1C(=O)N1CC(OCC(F)(F)F)CN1c1ncccc1F (stereo not shown) [Example 452, (4-amino-1,7-dimethyl-1H-pyrazolo[4,3-c]quinolin-8-yl)(2-(3-fluoropyridin-2-yl)-4-(2,2,2-trifluoroethoxy)pyrazolidin-1-yl) methanone]	45	31.67	1420	7.3	–
Cc1cc2nc(N)c3cnn(C)c3c2cc1C(=O)N1CCC(C)N1c1ncc(Br)cc1F (stereo not shown) [Example 390, (4-amino-1,7-dimethyl-1H-pyrazolo[4,3-c]quinolin-8-yl)(2-(5-bromo-3-fluoropyridin-2-yl)-3-methylpyrazolidin-1-yl)metha none]	233	>42.92	> 10000	8.6	–
Cn1ncc2c(N)nc3cc(Cl)c(C(=O)N4CC5(CC5)CN4c4ncc(Br)cc4F)cc3c21 [Example 345, (4-amino-7-chloro-1-methyl-1H-pyrazolo [4,3-c]quinolin-8-yl)(6-(5-bromo-3-fluor opyridin-2-yl)-5,6-diazaspiro[2.4]heptan-5-yl)methanone]	44	17.57	773	4.4	–
Cn1ncc2c(N)nc3cc(Cl)c(C(=O)N4CC(C)(F)CN4c4ncccc4F)cc3c21 (stereo not shown) [Example 425, (4-amino-7-chloro-1-methyl-1H-pyrazolo [4,3-c]quinolin-8-yl)(4-fluoro-2-(3-fluoropyridin-2-yl)-4-methylpyrazolidin-1-yl)m ethanone]	54	15.74	850	8.3	–
